{"source": "paper PMC12463534", "about": "“Exploring the Anticancer Properties of 4-Phenylthiazole-Based Ru(II) and Os(II) Metallacycles Featuring 1-Methylimidazole as N-Donor Functionality” (Bioinorganic Chemistry and Applications, 2025)", "key": {"SW480 cells": {"system": "SW480 cells", "assay": "DCFH-DA assay, cellular ROS levels", "format": "cell-based, human", "settings": "2 h, concentration dependent", "procedure": "For this approach, SW480 cells were subjected to the 2′,7′-dichlorofluorescin-diacetate (DCFH-DA) assay.\nSW480 colon adenocarcinoma cells were trypsinized for 5 min in a humidified incubator at 37°C and under a 5% CO2 atmosphere. Supplemented MEM was added to stop trypsinization, and cells were centrifuged for 3 min at 1200 rpm (Heraeus Megafuge 1.0R). After cell counting, SW480 cells were seeded in 100-μL aliquots in densities of 2.5 × 10^4 cells/well into 96-well clear flat-bottom microplates (CytoOne, TC-treated, from Starlab). After incubation for 24 h, cells were washed with 200 μL of Hanks' balanced salt solution (HBSS; Sigma-Aldrich; supplemented with 1% heat-inactivated FCS). […] After washing cells with 200 μL of supplemented HBSS, serially diluted test compounds in phenol-red-free Opti-MEM (Gibco), supplemented with 1% heat-inactivated FCS, were added in 200-μl triplicates and tert-butyl hydroperoxide (TBHP) was applied as positive control. […] Blank-corrected values were calculated relative to negative controls (treated with drug-free supplemented Opti-MEM) from three independent experiments."}, "Balb/c mice": {"system": "Balb/c mice", "assay": "Toxicity experiments in Balb/c mice (MTD)", "settings": "mice, i.p.", "procedure": "Finally, we were interested in the anticancer activity of selected complexes of our panel in an in vivo mouse setting. Before injecting the compounds in tumor-bearing mice, toxicity experiments were performed. […] On the last day of therapy, most animals were sacrificed and tissues as well as tumors collected. Only four mice (per group) were kept to get information on the impact of the drugs on the overall survival."}, "CT26 tumor": {"system": "CT26 tumor", "assay": "Anticancer activity in CT26 tumor-bearing BALB/c mice", "format": "in vivo", "settings": "i.p. 50 mg/kg, 5 times a week for two weeks, did not reach statistical significance", "procedure": "Figure 5 Anticancer activity of 1c and 3c in vivo. CT26-bearing BALB/c mice were treated i.p. with 50 mg/kg for five consecutive days for 2 weeks. (a) Impact on tumor growth; data are presented as mean ± SEM. […] On Day 15, most of the animals were sacrificed and tissues collected for further analyses. Of each group, 4 animals were kept to assess the impact on overall survival, which is shown in (b). Statistical significance was tested by log-rank test and Mantel–Cox post-test, ^∗p < 0.01. (c) The ruthenium levels measured by ICP-MS in the collected tissue samples of the mice, which were sacrificed 2 h after the last treatment.\n(§1) CT26 cells (5 × 10^5 cells in 50-μL serum-free medium) were injected subcutaneously (s.c.) into the right flank of 8–16-week-old BALB/c mice (Envigo Laboratories, San Pietro Al Natisone, Italy). After 3 days, therapy treatment started on five consecutive days for 2 weeks. Animals were treated i.p. with 50 mg/kg 1c and 3c (all dissolved in 10% DMSO in 0.9% NaCl, 12 mice per group). The solvent control animals received 10% DMSO in 0.9% NaCl. Every day, the animals were monitored for the overall health conditions and tumor size was measured regularly by caliper measurement. Tumor volumes (mm^3) were calculated using following formula: length × width^2/2. In the overall survival arm of the experiment, mice were sacrificed by cervical dislocation in the case of a tumor length > 20 mm or tumor ulceration or a decreased body weight of ∼20%. Tumor growth and possible side effects of the treatment were evaluated by daily recording the tumor size by caliper measurement and parameters of the animal's overall health conditions. In the tissue sampling arm at the experiment, the mice were sacrificed by cervical dislocation 2 h after the last treatment. Tumors as well as organs were collected. Additionally, blood was drawn and incubated for 25 min to allow blood clotting. To isolate serum and blood pellets, the blood was centrifuged for 10 min at 17,900 g at room temperature. The supernatant characterized as serum was transferred to a new tube and centrifuged again to remove residual red blood cells. All collected samples were stored at −20°C and further processed for platinum measurements via ICP-MS."}, "[1]": {"assay": "Ruthenium levels in tissues by ICP-MS", "format": "in vivo", "settings": "CT26-bearing mice, 2 h after last injection", "procedure": "Tumor-specific organs and blood serum, harvested from the other animals 2 h after the last injection (Figure 5(c)), were measured for the average ruthenium content by inductively coupled plasma mass spectrometry (ICP-MS) of tissue homogenates.\nas §1, with “In the overall survival arm of the experiment, mice were sacrificed by cervical dislocation in the case of a tumor length > 20 mm or tumor ulceration or a decreased body weight of ∼20%.” left out\nThe ruthenium concentration was determined by ICP-MS analysis. Ruthenium and rhenium standards were derived from LabKings (LabKings B.V., The Netherlands). The total ruthenium content was determined with a quadrupole-based ICP-MS instrument Agilent 7800 (Agilent Technologies, Tokyo, Japan) equipped with the Agilent SPS 4 autosampler (Agilent Technologies, Tokyo, Japan) and a MicroMist nebulizer at a sample uptake rate of approximately 0.2 mL·min^−1. […] Argon was used as plasma gas (15 L·min^−1) and as carrier gas (∼1.08 L·min^−1). The integration time was set to 0.1 s, and measurements were performed in 6 replicates with 100 sweeps. Rhenium served as internal standard for ruthenium."}, "[2]": {"system": "A549 lung adenocarcinoma cells", "parameters": "method as in PMID 38426897", "settings": "MTT assay, exposure time 96 h; ref [5]; read-out: 50% inhibitory concentration A549 (chlorido complexes, reference) (converted); cited from earlier work"}, "[3]": {"system": "SW480 colon adenocarcinoma cells", "parameters": "method as in PMID 38426897", "settings": "MTT assay, exposure time 96 h; ref [5]; read-out: 50% inhibitory concentration SW480 (chlorido complexes, reference) (converted); cited from earlier work"}, "[4]": {"system": "CH1/PA-1 ovarian teratocarcinoma cells", "parameters": "method as in PMID 38426897", "settings": "MTT assay, exposure time 96 h; ref [5]; read-out: 50% inhibitory concentration CH1 (chlorido complexes, reference) (converted); cited from earlier work"}, "[5]": {"system": "G4 forming sequences (h-Telo, bcl2, hTERT, Kit1, Kit2) and dsDNA", "parameters": "method as in PMID 38426897", "settings": "recent work; ref [5]; cited from earlier work"}, "[6]": {"system": "HCT116 colorectal cancer cell line (2D)", "assay": "Resazurin assay, HCT116 2D (monolayer) culture", "protocol": "(§2) Both models were investigated by the fluorimetric resazurin assay after 96-h exposure.\n(§3) HCT116 colorectal carcinoma cells (RRID:CVCL_0291 from ATCC) were cultivated in McCoy's 5A medium, supplemented with 10% heat-inactivated fetal bovine serum and 4 mM L-glutamine.\n(§4) For 2D experiments, HCT116 cells were harvested from culture flasks by trypsinization, seeded in 100-μL aliquots into 96-well microculture plates (CytoOne, TC-treated, from Starlab) in densities of 2 × 10^3 cells per well, and incubated for 24 h prior to exposure to the test compounds. […] Stock solutions of test compounds were prepared in DMF, which were then diluted in McCoy's 5A-supplemented medium (not to exceed a final content of 0.5% v/v of organic solvent in the test plates), and serial dilutions were added in aliquots of 100 μL per well. […] After incubation for 4 h, fluorescence was measured with a microplate reader (Bio-Tek, SynergyHT) at a wavelength of 530 nm, additionally using a reference wavelength of 620 nm."}, "[7]": {"system": "HCT116 multicellular tumor spheroids (3D)", "assay": "Resazurin assay, HCT116 3D multicellular tumor spheroids", "protocol": "as §2, §3, §4"}}, "data": [{"smiles": "CS(=O)(=O)c1ccc(-c2cscn2)[c]([Ru][Cl])c1.Cc1ccc(C(C)C)cc1", "note": "[Compound 1c]", "values": [{"measurement": "Effect on intracellular ROS levels", "setting": "SW480 cells", "value": "constantly decrease ROS levels with increasing concentrations"}, {"measurement": "Tolerated dose", "setting": "Balb/c mice", "value": "at least 50 mg/kg"}, {"measurement": "Impact on tumor volume (anticancer activity)", "setting": "CT26 tumor", "value": "slight anticancer activity"}, {"measurement": "Kidney ruthenium levels, fold higher compared to 3c", "setting": "[1]", "value": 10, "unit": "fold"}, {"measurement": "Ruthenium level in liver", "setting": "[1]", "value": "~20", "unit": "mg/kg"}, {"measurement": "Ruthenium level in tumor", "setting": "[1]", "value": "~1", "unit": "mg/kg"}, {"measurement": "IC50", "setting": "[2]", "value": 12, "unit": "µM"}, {"measurement": "IC50", "setting": "[3]", "value": 5.1, "unit": "µM"}, {"measurement": "IC50", "setting": "[4]", "value": 1.6, "unit": "µM"}, {"measurement": "Stabilization of DNA G-quadruplex structures", "setting": "[5]", "value": "stabilize DNA G-quadruplex (G4) structures"}, {"measurement": "Increase of cytotoxic activity by mesylation (1c vs 1a), 2D", "setting": "[6]", "value": 2.8, "unit": "times"}, {"measurement": "IC50", "setting": "[6]; read-out: IC50 2D, resazurin assay, 96 h exposure", "value": "6.5 ± 1.3", "unit": "µM"}, {"measurement": "Enhancement of cytotoxic activity by mesylation (1c vs 1a), 3D", "setting": "[7]; HCT116 3D", "value": 3.5, "unit": "fold"}, {"measurement": "IC50", "setting": "[7]; read-out: IC50 3D, HCT116 3D spheroids, resazurin assay, 96 h exposure", "value": "8.9 ± 2.1", "unit": "µM"}]}]}
